Experimental data: patent US20220411879A1, “COMPOSITIONS AND METHODS FOR REGULATING EGFR AMPLIFICATION IN CANCER CELLS FOR IMPROVING EFFICACY OF EGFR-TARGETED ANTI-CANCER AGENTS” (Institute for Cancer Research d/b/a The Research Institute …, priority 2019, published 2022)

Legend:
Assay type in all cases: cell-based, human
RPE cells [1] = test: DNA FISH for EGFR DNA copy number in RPE cells
Method: The FISH protocol was performed as described previously in Black et al. (2013). Briefly, cell suspensions were fixed in ice-cold methanol:glacial acetic acid (3:1) solution for a minimum of four hours, before being spun onto 8 Chamber Polystyrene vessel tissue culture treated glass slides (Falcon, Fisher Scientific), using a centrifuge at 900 rpm. The slides were air-dried and incubated in 2×SSC buffer for 2 min, followed by serial ethanol dilution (70%, 85% and 100%) incubations for 2 min each, for a total of 6 min. Air-dried slides were hybridized with probes that were diluted in appropriate buffer overnight at 37° C., following a 4 minute incubation on a heat block at 78° C. The slides were washed the next day for 3 to 4 mins in appropriate wash buffers at 69° C. with 0.4×SSC for Cytocell probes or commercially available Agilent wash buffer 1 followed by washing in 2×SSC with 0.05% Tween-20 (Cytocell probes) or commercially available Agilent wash buffer 2 (Agilent probes). The slides were incubated in 1 mg/mL DAPI solution made in 1% BSA-PBS, followed by a final 1×PBS wash. After the wash, the slides were mounted with ProLong Gold antifade reagent (Invitrogen).
FISH images were acquired using an Olympus IX81 or Olympus IX83 spinning disk microscope at 40× magnification and analyzed using Slidebook 6.0 softwares. A minimum of 25 z-planes with 0.5 um step size was acquired for each field. Copy number gains for EGFR, 7 centromere (7C), 7p telomere (7p22.3), IKZF1 (7p12.2) and 8 centromere (8C) were scored in RPE cells as three or more foci. A minimum of 100 nuclei are scored for each independent experiment.
For hypoxia, EGF and KDM5i combinatorial experiments, RPE cells were pre-treated with 1 nM of KDM4 inhibitor exactly 24 hours prior to hypoxic exposure or EGF treatment. Immediately before transferring cells to hypoxia, or before drug or growth factor treatment, KDM4 inhibitor was supplemented to cells again at a concentration of 1 nM (double spike). Cells were then cultured in the respective conditions for 24 hours prior to harvesting for RNA, protein, cell cycle and DNA FISH analysis.
RPE cells were treated with KDM5 inhibitor (C70) at a final concentration of 1 μM for a total treatment time of 48 hours. […]

RPE cells [2] = test: Cell proliferation assay with EGF stimulation in RPE cells
Method: Control, KDM4A overexpression or wild type parental RPE cells were plated at a density of 5×10^3 per well in a 6 well tissue culture plate. Each condition was plated in triplicate for each independent experiment. Cells were allowed to adhere for 16 hours before fresh complete media was added containing a final concentration of 50 ng/ml human recombinant EGF (Abcam). For control and KDM4A overexpression RPE cells, cells were harvested after 48 hours of EGF treatment and cell number calculated using a haemocytometer. For combinatorial drug experiments using parental RPE cells, EGF was added for 24 hours, following a 24 hour drug treatment with either KDM5i (1 μM) or EZH2i (3 μM).
Parental RPE cells were plated in 24 well tissue culture plates, in triplicate at a density of 5×10^3. Cells were allowed to adhere for approximately 16 hours before media was supplemented with EZH2 inhibitor (C24) at a final concentration of 3 μM. After an initial 24 hour treatment, human recombinant EGF was supplemented to each well at a final concentration of 50 ng/ml. After 48 hours of EGF treatment, cells were harvested and counted using a haemocytometer.

EGFR transcripts = test: qPCR of EGFR transcripts in RPE cells; conditions: 50 ng/ml EGF, 24 hours
Method: Cells were washed and collected by trypsinization, followed by washing in PBS two times. Cell pellet was resuspended in Qiazol reagent (QIAGEN) and stored at −80° C. before further processing. Total RNA was extracted using miRNAeasy Mini Kit (QIAGEN) with an on-column DNase digestion according to the manufacturer's instructions. RNA was quantified using NanoDrop 2000 (Thermo Scientific). Single strand cDNA was prepared using Super Script IV first strand synthesis kit (Invitrogen) using random hexamers. Expression levels were analyzed using FastStart Universal SYBR Green Master (ROX) (Roche) according to the manufacturer's instructions on a LightCycler 480 PCR machine (Roche). Samples were normalized to β-actin.

RPE cells [3] = test: Scratch assay (cell migration) in RPE cells; conditions: KDM4A overexpressing RPE cells vs control, 50 ng/ml EGF, 24 hours
Method: Control or stable KDM4A overexpression RPE cells were plated in 6 well tissue culture plates at a density of 2×10^5. Cells were allowed to adhere to plates for 24 hours. After 24 hours in culture, a p200 pipette tip was used to introduce a scratch wound in the centre of the well from the 12 o'clock to 6 o'clock position. Following the induction of the scratch wound, media was removed from each well and 1 ml of DMEM was used to rinse the wells, removing any cellular debris. After this wash, 3 ml of DMEM supplemented with vehicle or human recombinant EGF (Abcam) to a final concentration of 50 ng/ml, was added to each well. Cells were imaged at 0 hrs, 12 hrs and 24 hrs, using the EVOS imaging platform at 4× magnification. Scratch wound measurements were performed using the EVOS software with a minimum of 5 measurements taken at various locations, per scratch wound. All measurements were averaged. Each condition was performed in triplicate for each independent experiment.

KDM4A = test: Immunoblot of KDM4A protein levels in RPE cells; conditions: EGF 50 ng/ml, 24 hours
Method: Cells were trypsinized and washed two times with PBS before resuspending in RIPA lysis buffer [50 mM Tris pH 7.4, 150 mM NaCl, 0.25% Sodium Deoxycholate, 1% NP40, 1 mM EDTA, 10% Glycerol] freshly supplemented with protease inhibitor and PhosSTOP phosphatase inhibitor cocktails (Roche). Cells were lysed on ice for 15 min and stored at −80° C. until further processing. Lysates were sonicated for 15 min (30 sec ON and 30 sec OFF cycle) at 70% amplitude in QSonica Q700 sonicator (Qsonica) followed by centrifugation at 12,000 rpm for 15 min. Cell lysate was transferred to a fresh tube and protein estimations were performed with Pierce BCA reagent (Thermo Scientific). Equal amounts of proteins were separated by SDS gel electrophoresis and transferred on nitrocellulose membrane (BioTrace NT, Pall Life Sciences) for at least 3 hr at a constant current. The membranes were blocked for at least 1 hr in 5% BSA-PBST (1×PBS with 0.5% Tween-20) or 5% milk-PBST and probed over night with specific antibodies as follows at the following dilutions: anti-GFP (Neuro mAb) (1:100); anti-β-Actin (1:10,000); anti-KDM4A (Neuro mAb) (1:100); anti-Flag (Sigma Aldrich) (1:500); anti-KDMSA (abcam) (1:500); anti-HALO (Promega) (1:1000); anti-Carbonic Anhydrase IX (Abcam) (1:1000). […]

RPE cells [4] = test: Trypan blue exclusion assay of EGFR inhibitor sensitivity in RPE cells; conditions: KDM5i (1 μM) and Gefitinib (2.5 μM), 72 hours
Method: Control or stable KDM4A overexpression RPE cells were plated in 24 well tissue culture plates at a density of 5×10^3. […] Cells were stained with trypan blue solution (Sigma Aldrich) to assess cell viability and counted using a haemocytometer. Each condition was plated in triplicate wells and each well was counted in duplicate. An average was taken of all triplicates and used as a representative total.
Control or stable KDM4A overexpression RPE cells were plated in 24 well tissue culture plates at a density of 8×10^3. […] Cells were stained with trypan blue solution (Sigma Aldrich) to assess cell viability and counted using a hemocytometer. Each condition was plated in triplicate wells and each well was counted in duplicate. An average was taken of all triplicates and used as a representative total.
Parental RPE cells are plated in 24 well tissue culture plates, in triplicate at a density of 5×10^3. […] Cells are cultured for a total of 72 hours under drug treatment conditions before being harvested, stained with trypan blue and counted using a haemocytometer.

## EGF: human recombinant EGF (Abcam), the preferred ligand of EGFR
RPE cells [1]; RPE cells stably overexpressing KDM4A, 50 ng/ml EGF, 24 hours
  EGFR DNA copy number, EGF in KDM4A overexpressing cells: additive increases in EGFR DNA copy number
RPE cells [1]; RPE cells, 50 ng/ml EGF, 24 hours
  EGFR copy number gains: significant copy number gains of the EGFR locus
RPE cells [1]; RPE cells, hypoxia 24 hours then 50 ng/ml EGF under hypoxia 24 hours
  EGFR DNA copy number, EGF combined with hypoxia: modest but additive increase in EGFR DNA copy number
RPE cells [2]; KDM4A overexpressing RPE cells vs control, 50 ng/ml EGF, 48 hours
  cell proliferation: proliferate faster
EGFR transcripts
  EGFR transcripts (qPCR): increased EGFR transcripts
RPE cells [3]
  cell migration (scratch assay): migrate faster
KDM4A
  KDM4A protein levels: does not impact KDM4A levels

## CCOC(=O)c1ccnc(CNCC(=O)N(CC)CCN(C)C)c1 [KDM5i, reference compound]
RPE cells [1]; RPE cells, KDM5i 1 μM, 24 hrs after removal
  EGFR copy gains after drug removal (washout): returned to baseline
RPE cells [1]; RPE cells, KDM5i (C70) 1 μM
  EGFR copy gains: promoted EGFR copy gains
RPE cells [4]
  percentage of cells (trypan blue exclusion) on co-treatment with Gefitinib: reduced the percentage of cells relative to controls and single agent treatment
RPE cells [2]; RPE cells pre-treated with KDM5i (1 μM) 24 hours, then 50 ng/ml EGF 24 hours, compared to KDM5i alone
  cell proliferation in response to EGF: increased cell proliferation with supplemented EGF
